The target in data set [1] is T1, Voltage-gated inwardly rectifying potassium channel KCNH2 (Homo sapiens, UniProt Q12809). As to the kind of experiment: Displacement of [3H]astemizole from human ERG K+ channel expressed in HEK293 cells by scintillation spectrophotometric analysis. (Displacement assays read how much labelled ligand stays bound in the presence of the test substance.)
The target of data set [2] is T2, hERG (KCNH2) K+ channel (Homo sapiens, UniProt Q12809). Nature of the data set: Displacement of [3H]astemizole from human ERG K+ channel expressed in HEK293 cells at 10 uM by scintillation spectrophotometric analysis.
In data set [3] the target is T1, Voltage-gated inwardly rectifying potassium channel KCNH2. As to the kind of experiment: Inhibition of human ERG K+ channel expressed in HEK293 cells after 15 mins by patch clamp assay. In kind it is cell-based.
Data set [4] has as its target T2, hERG (KCNH2) K+ channel. Nature of the data set: Assay index, ratio of IC50 for human ERG K+ channel expressed in HEK293 cells by patch clamp assay to IC50 for human ERG K+ channel expressed in HEK293 cells by radioligand binding assay. In kind it is cell-based. The following applies: HEK293 cells expressing human ERG K+ channel, read-out: Ratio IC50. (In patch-clamp work, channel activity is measured electrically.)

[5] abbreviates: HEK293 cells expressing human ERG K+ channel, probe [3H]astemizole.

T1 sequence (Q12809 whole entry): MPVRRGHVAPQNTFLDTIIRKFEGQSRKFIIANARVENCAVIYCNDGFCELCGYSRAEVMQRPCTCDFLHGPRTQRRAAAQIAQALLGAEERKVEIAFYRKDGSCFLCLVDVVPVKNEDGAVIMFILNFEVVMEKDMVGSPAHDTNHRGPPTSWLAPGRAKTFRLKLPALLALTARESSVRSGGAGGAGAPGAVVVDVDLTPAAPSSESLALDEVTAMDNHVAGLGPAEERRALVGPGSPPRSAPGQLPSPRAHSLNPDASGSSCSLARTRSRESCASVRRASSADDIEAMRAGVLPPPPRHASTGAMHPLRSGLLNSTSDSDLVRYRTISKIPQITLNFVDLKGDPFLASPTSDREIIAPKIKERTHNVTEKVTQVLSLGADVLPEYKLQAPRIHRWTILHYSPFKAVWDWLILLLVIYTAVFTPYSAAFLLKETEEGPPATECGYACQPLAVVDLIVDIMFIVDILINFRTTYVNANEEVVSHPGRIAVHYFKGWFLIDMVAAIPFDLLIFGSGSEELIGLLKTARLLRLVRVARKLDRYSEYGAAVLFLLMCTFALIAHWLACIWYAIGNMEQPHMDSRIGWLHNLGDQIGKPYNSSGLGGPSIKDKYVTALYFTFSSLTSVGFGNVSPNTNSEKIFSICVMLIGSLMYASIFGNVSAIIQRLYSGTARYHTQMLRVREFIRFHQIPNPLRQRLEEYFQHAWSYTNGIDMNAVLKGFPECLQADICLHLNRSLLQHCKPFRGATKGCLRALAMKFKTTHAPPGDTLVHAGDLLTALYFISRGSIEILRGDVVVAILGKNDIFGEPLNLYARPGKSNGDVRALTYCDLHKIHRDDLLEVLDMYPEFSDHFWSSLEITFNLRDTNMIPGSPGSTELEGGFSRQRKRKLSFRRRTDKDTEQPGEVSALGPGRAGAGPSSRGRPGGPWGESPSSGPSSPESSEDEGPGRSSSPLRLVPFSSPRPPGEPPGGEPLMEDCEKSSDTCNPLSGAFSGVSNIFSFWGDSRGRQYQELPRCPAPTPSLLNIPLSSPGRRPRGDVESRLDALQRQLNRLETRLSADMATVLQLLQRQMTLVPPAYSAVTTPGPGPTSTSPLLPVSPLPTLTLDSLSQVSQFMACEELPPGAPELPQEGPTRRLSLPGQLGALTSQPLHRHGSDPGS
T2 sequence (Q12809 whole entry): as above

As for `C[n+]1c(C#Cc2ccc(-c3ccccc3)cc2)cccc1C#Cc1ccc(-c2ccccc2)cc1`, the concentration for half-maximal inhibition (IC50) in data set [1] was 294 nM.
On the same count and under the same terms, the same measure for `CCCCCCC#Cc1cccc(C#CCCCCCC)[n+]1C`: 1990 nM; for `Cc1ccc(CCOCCCc2cccc(CCCOCCc3ccc(C)cc3)[n+]2C)cc1`: 371 nM.
`C[n+]1c(COc2ccccc2)cccc1COc1ccccc1`: the half-inhibitory concentration (IC50) in data set [1] is 767 nM.
Consider `C(#Cc1cccc(C#Cc2ccccc2)n1)c1ccccc1`, for which the inhibition at 10 µM at hERG (KCNH2) K+ channel [2] (setting [5]) is -11%.
Still for that read-out and setting: the value for `c1ccc(CCc2cccc(CCc3ccccc3)c2)cc1` was 8%.
Molecule `Cc1ccc(C#Cc2cccc(C#Cc3ccc(C)cc3)[n+]2C)cc1` returned a concentration for half-maximal inhibition (IC50) in data set [1] of 285 nM.
With `c1ccc(CCc2cccc(CCc3ccccc3)n2)cc1`, the IC50 in data set [1] came to 1610 nM.
Still for that read-out and setting: the value for `Cc1ccc(CCOCc2cccc(COCCc3ccc(C)cc3)[n+]2C)cc1` was 135 nM.
Turning to `c1ccc(OCc2cccc(COc3ccccc3)n2)cc1`, on hERG (KCNH2) K+ channel [2] (hek293), the inhibition at 10 µM was 15%.
With `Cc1ccc(CCCOCc2cccc(COCCCc3ccc(C)cc3)[n+]2C)cc1`, the values for the IC50 in data set [3] and in data set [1] were 194 nM and 24 nM, respectively. Moreover, the selectivity ratio at hERG (KCNH2) K+ channel [4] was 8.1.
On to `Cc1ccc(Cc2cccc(COc3ccc(C)cc3)n2)cc1`, for which, at hERG (KCNH2) K+ channel [2] (hek293), the inhibition at 10 µM was found to be 9%.
On to `Cc1ccc(OCCCc2cc(N)cc(CCCOc3ccc(C)cc3)n2)cc1`, for which the IC50 in data set [3] was 146 nM; in data set [1] it was 170 nM. Also, on hERG (KCNH2) K+ channel [4], the selectivity ratio amounted to 0.86.
For `C[n+]1c(C#Cc2cccc(Cl)c2)cccc1C#Cc1cccc(Cl)c1`, the IC50 in data set [1] is 4020 nM.
Still for that read-out and setting: the same measure for `C[n+]1c(CCCOc2ccccc2)cccc1CCCOc1ccccc1`: 208 nM; for `C[n+]1c(C#Cc2ccccc2Cl)cccc1C#Cc1ccccc1Cl`: 3900 nM; for `Cc1ccc(COCc2cccc(COCc3ccc(C)cc3)[n+]2C)cc1`: 107 nM.
For the molecule `C[n+]1c(C#CCOc2ccccc2Cl)cccc1C#CCOc1ccccc1Cl`, the inhibition at 10 µM at hERG (KCNH2) K+ channel [2] (setting [5]) was found to be 16%.
Regarding `Cc1ccc(OCCCc2cccc(CCCOc3ccc(C)cc3)[n+]2C)cc1`, the IC50 in data set [3] was determined as 962 nM; in data set [1] it was 86 nM. Also, the selectivity ratio on hERG (KCNH2) K+ channel [4] was found to be 11.2.
Molecule `Cc1ccc(CCc2cccc(CCc3ccc(C)cc3)n2)cc1` had an IC50 in data set [1] (human, hek293) of over 10000 nM.
Take `Cc1ccc(Cc2ccnc(COc3ccc(C)cc3)c2)cc1`: the inhibition at 10 µM at hERG (KCNH2) K+ channel [2] (setting [5]) was -3%. The molecule further gave an IC50 in data set [1] of over 10000 nM.

For orientation: IC50 means the concentration needed to halve the response being measured. Read a high IC50 as lower potency. For orientation: inhibition means the change of the read-out against control, counted positive when it falls.

Source of the values: ChEMBL document CHEMBL2321724 (J Med Chem, 2013).
